Experimental data taken from BindingDB's records for doi:10.1111/j.1747-0285.2009.00842.x (Universita Degli Studi Di Firenze, 2009).

Assays:
Carbonic anhydrase 7 = Carbonic anhydrase 7 (Homo sapiens, UniProt P43166); assay: Inhibition Assay; conditions: pH 7.4; 25 °C
Carbonic anhydrase 2 = Carbonic anhydrase 2 (Homo sapiens, UniProt P00918); assay: Inhibition Assay; conditions: pH 7.4; 25 °C

Sequence of Carbonic anhydrase 7 (P43166 whole entry): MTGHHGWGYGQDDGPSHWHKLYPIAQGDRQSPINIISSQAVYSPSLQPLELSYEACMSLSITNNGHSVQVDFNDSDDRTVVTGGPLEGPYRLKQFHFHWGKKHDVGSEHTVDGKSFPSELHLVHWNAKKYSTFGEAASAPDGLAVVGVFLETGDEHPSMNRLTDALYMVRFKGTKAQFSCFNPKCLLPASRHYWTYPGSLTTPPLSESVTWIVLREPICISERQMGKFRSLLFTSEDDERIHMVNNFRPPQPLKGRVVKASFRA

Row | SMILES | Ki (Carbonic anhydrase 7) [nM] | Ki (Carbonic anhydrase 2) [nM]
1 | NS(=O)(=O)c1ccc(Cl)cc1 [p-Halide-sulfanilamide derivative, 2] | – | 17.5
2 | NS(=O)(=O)c1ccc(I)cc1 [p-Halide-sulfanilamide derivative, 3] | – | 81
3 | COc1ccc(/N=N/c2ccc(S(=O)(=O)N(C)C)cc2)cc1 [p-Phenyldiazenyl derivative, 6] | 4200 | 863
4 | CN(C)S(=O)(=O)c1ccc(N=Nc2ccc(O)cc2)cc1 [p-Phenyldiazenyl derivative, 7] | 752 | 312

Further compounds by falling Ki (Carbonic anhydrase 7), results first:

Row | Ki (Carbonic anhydrase 7) [nM] | Ki (Carbonic anhydrase 2) [nM] | SMILES
5 | 706 | 277 | CNS(=O)(=O)c1ccc(N=Nc2ccc(O)cc2)cc1 [p-Phenyldiazenyl derivative, 8]
6 | 88 | – | NS(=O)(=O)c1ccc(O)cc1 [p-Hydroxy-benzene derivative, 3a]
7 | 68 | – | NS(=O)(=O)c1ccc(Br)cc1 [p-Halide-sulfanilamide derivative, 2a]
8 | 30 | – | CN(C)c1ccc(/N=N/c2ccc(S(N)(=O)=O)cc2)cc1
